SMILES strings stand for the structures.

The text below walks through data of patent EP0882029B1, “HETEROCYCLIC DERIVATIVES AS ANTIDIABETIC AND ANTIOBESITY AGENTS” (MERCK & CO., INC., priority 1996, dated 1997).

In one assay the target is T1, Human PPARγ2 (Homo sapiens, UniProt P37231).
T1 construct: The full length human cDNA for PPARγ2 and PPARδ were subcloned into the PGEX-2T and PGEX-KT, respectively, expression vector; made in house; host or cells: E. coli (pGEX-2T vector, Pharmacia)
T1 sequence (P37231 1-505): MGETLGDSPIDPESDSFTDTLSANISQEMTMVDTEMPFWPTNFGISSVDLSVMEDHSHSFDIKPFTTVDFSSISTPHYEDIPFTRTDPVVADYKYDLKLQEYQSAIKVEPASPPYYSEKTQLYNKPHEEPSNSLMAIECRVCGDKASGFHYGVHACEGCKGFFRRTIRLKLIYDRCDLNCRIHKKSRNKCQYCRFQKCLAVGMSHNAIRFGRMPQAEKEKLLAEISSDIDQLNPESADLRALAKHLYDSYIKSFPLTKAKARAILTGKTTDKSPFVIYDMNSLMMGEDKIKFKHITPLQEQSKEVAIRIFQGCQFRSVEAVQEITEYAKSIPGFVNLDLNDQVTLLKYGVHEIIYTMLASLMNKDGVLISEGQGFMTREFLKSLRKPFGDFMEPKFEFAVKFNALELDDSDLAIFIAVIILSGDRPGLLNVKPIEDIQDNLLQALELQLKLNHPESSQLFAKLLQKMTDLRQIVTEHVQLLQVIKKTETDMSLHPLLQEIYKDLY
Kind of assay: [3H]AD-5075 displacement (receptor binding) assay. Conditions: gst-fusion receptor, 10 nM [3H2]AD-5075, ~16 h at 4 °C. As to the method:
Human PPARγ2 and PPARδ, independently, were prepared as gst-fusion proteins in E. coli. The full length human cDNA for PPARγ2 and PPARδ were subcloned into the PGEX-2T and PGEX-KT, respectively, expression vector (Pharmacia). E. coli containing the plasmid were grown, induced, and then harvested by centrifugation. The resuspended pellet was broken in a French press and debris was removed by centrifugation at 12,000Xg. Receptors were purified from the supernatant by affinity chromatography on glutathione sepharose. After application to the column, and 1 wash, receptor was eluted with glutathione. Glycerol was added to stabilize the receptor and aliquots were frozen at -80 °C for later use.
For each assay, an aliquot of receptor (1:1000-1:3000 dilution) was incubated in TEGM (10 mM Tris, pH 7.2, 1 mM EDTA, 10% glycerol, 7 µl/100 ml β-mercaptoethanol, 10 mM Na molybdate, 1 mM dithiothreitol, 5 µg/ml aprotinin, 2 µg/ml leupeptin, 2 µg/ml benzamide and 0.5 mM PMSF) containing 5-10% COS-1 cell cytoplasmic lysate and 10 nM labeled thiazolidinedione ([^3H2]AD-5075, 21 Ci/mmole), ± test compound compound, [^3H2]Example 11, 17 Ci/mmole), ± test compound, respectively. Assays were incubated for ∼16 h at 4 °C in a final volume of 300 µl. […] After centrifugation at 3000 rpm for 10 min at 4 °C, 200 µl of the supernatant fraction was counted in a liquid scintillation counter. […]

In a further assay the target is T2, Human PPARδ (Homo sapiens, UniProt Q03181).
T2 construct: The full length human cDNA for PPARγ2 and PPARδ were subcloned into the PGEX-2T and PGEX-KT, respectively, expression vector; made in house; host or cells: E. coli (pGEX-KT vector, Pharmacia)
T2 sequence (Q03181 1-441): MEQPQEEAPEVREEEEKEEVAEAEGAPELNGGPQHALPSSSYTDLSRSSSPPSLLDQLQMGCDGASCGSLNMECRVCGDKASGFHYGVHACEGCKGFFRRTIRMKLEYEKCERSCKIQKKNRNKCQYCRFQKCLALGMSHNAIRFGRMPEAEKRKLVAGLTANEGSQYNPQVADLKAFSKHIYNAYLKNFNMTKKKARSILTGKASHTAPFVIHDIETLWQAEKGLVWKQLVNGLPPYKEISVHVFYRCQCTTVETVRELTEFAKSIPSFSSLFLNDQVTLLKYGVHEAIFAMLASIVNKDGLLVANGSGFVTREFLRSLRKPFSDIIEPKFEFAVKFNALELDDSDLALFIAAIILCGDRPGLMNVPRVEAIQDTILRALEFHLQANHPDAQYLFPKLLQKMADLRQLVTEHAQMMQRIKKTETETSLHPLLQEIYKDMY
Kind of assay: [3H2]Example 11 displacement (receptor binding) assay. Conditions: gst-fusion receptor, [3H2]Example 11, ~16 h at 4 °C. As to the method: The hPPARδ binding assay comprises the steps of: • (a) preparing multiple test samples by incubating separate aliquots of the receptor hPPARδ with a test compound in TEGM containing 5-10% COS-1 cell cytoplasmic lysate and 2.5 nM labeled ([^3H2]Compound D, 17 Ci/mmole) for a minimum of 12 hours, and preferably for about 16 hours, at 4 °C, wherein the concentration of the test compound in each test sample is different, and preparing a control sample by incubating a further separate aliquot of the receptor hPPARδ under the same conditions but without the test compound; then • (b) removing unbound ligand by adding dextran/gelatin-coated charcoal to each sample while maintaining the samples at 4 °C and allowing at least 10 minutes to pass, then • (c) subjecting each of the test samples and the control sample from step (b) to centrifugation at 4 °C until the charcoal is pelleted; then • (d) counting a portion of the supernatant fraction of each of the test samples and the control sample from step (c) in a liquid scintillation counter and analyzing the results to determine the IC50 of the test compound.
Human PPARγ2 and PPARδ, independently, were prepared as gst-fusion proteins in E. coli. The full length human cDNA for PPARγ2 and PPARδ were subcloned into the PGEX-2T and PGEX-KT, respectively, expression vector (Pharmacia). […]

`Cc1oc(-c2ccccc2)nc1C(O)COc1ccc(CC2SC(=O)NC2=O)cc1` (centres unmarked) [AD-5075] yielded a Kd at Human PPARγ2 of 1 nM.

For the compound `CCCc1c(OCCC[S+]([O-])c2ccc(CC(=O)OC)cc2Cl)ccc2c(CC)noc12` (centres unmarked) [Example 11, Methyl 3-chloro-4-(3-(3-ethyl-7-propyl-6-benz-[4,5]-isoxazoloxy)-propylthio)phenylacetate S-oxide], the affinity at Human PPARδ, expressed as Kd, was 1 nM.

For orientation: Kd means the concentration at which binding is half-saturated. Low readings indicate tighter binding, high ones weaker binding.
